{"source": "patent US20060148804A1", "about": "“Pde4 inhibitors for the treatment of neoplasms of lymphoid cells” (priority 2003, published 2006)", "key": {"[1]": {"test_system": "NB4 cells", "test": "Intracellular cAMP and cAMP-dependent protein kinase (PKA) amounts in NB4 cells", "type": "cell-based", "settings": "versus basal conditions", "source_text": "(§1) In NB4 cells, PICLAMILAST accelerates the process of morphological granulocytic maturation and enhances the ATRA-dependent induction of specific differentiation markers such as NBT-reductase (NBTR) as well as CD11b. PICLAMILAST not only enhances, but also accelerates the process of granulocytic maturation set in motion by ATRA in acute myelogenous leukemia cells, reducing the time necessary to expose cells to ATRA to obtain maximal differentiation. […] PICLAMILAST exerts differential effects on a number of transcriptional factors involved in the process of leukemic cell maturation triggered by ATRA. […] The PICLAMILAST dependent enhancement of the ATRA-dependent induction of NBT-R is suppressed by the cAMP antagonist, Rp-8Br-cAMP, and the specific PKA inhibitor H-89. […] This phenomenon is more evident when cells are treated with combinations of ATRA and the PDE4 inhibitor. […] This altogether could represent a clinically relevant finding as it may represent a useful strategy to increase the therapeutic index of ATRA by decreasing its local and systemic toxicity."}, "[2]": {"test_system": "NB4 cells", "test": "Gene expression in NB4 / myeloid cells", "type": "cell-based", "source_text": "as §1"}, "[3]": {"test_system": "NB4 blasts", "test": "ATRA induced granulocytic maturation and growth inhibition of NB4 blasts", "type": "cell-based", "settings": "for PICLAMILAST dependent enhancement of the ATRA-dependent induction of NBT-R: added to PICLAMILAST and ATRA", "source_text": "as §1"}, "[4]": {"test_system": "U937 blasts", "test": "ATRA induced granulocytic maturation and growth inhibition of U937 blasts", "type": "cell-based", "settings": "together with ATRA"}, "[5]": {"test_system": "STAT1", "test": "Amounts and tyrosine phosphorylation of STAT1", "type": "cell-based", "settings": "in combination with the retinoid", "source_text": "as §1"}, "[6]": {"test_system": "cEBPalpha", "test": "Amounts of cEBPalpha in leukemic cell maturation triggered by ATRA", "type": "cell-based", "settings": "in combination with the retinoid", "source_text": "as §1"}, "[7]": {"test_system": "HL-60 blasts", "test": "ATRA induced granulocytic maturation and growth inhibition of HL-60 blasts", "type": "cell-based", "settings": "together with ATRA"}, "[8]": {"test_system": "retinoic acid receptor, RARalpha", "test": "Ligand-dependent transcriptional activity and phosphorylation of RARalpha", "type": "cell-based", "source_text": "as §1"}, "[9]": {"test_system": "cEBPepsilon", "test": "Upregulation of cEBPepsilon", "type": "cell-based", "settings": "in combination with the retinoid", "source_text": "as §1"}, "[10]": {"test_system": "CREBP transcriptional factor", "test": "Phosphorylation state of CREBP in NB4 cells", "type": "cell-based", "source_text": "as §1"}, "[11]": {"test_system": "chronic lymphocytic leukemia (CLL) B-lymphocytes", "settings": "in vitro; cited from earlier work"}}}
{"smiles": "CC1=C(/C=C/C(C)=C/C=C/C(C)=C/C(=O)O)C(C)(C)CCC1", "note": "[ATRA, all trans retinoic acid]", "values": [{"measurement": "amounts of cAMP-dependent protein kinase (PKA)", "setting": "[1]", "result": "Neither basal nor PICLAMILAST-induced levels of cAMP and PKA are modulated"}, {"measurement": "amounts of intracellular cAMP", "setting": "[1]", "result": "Neither basal nor PICLAMILAST-induced levels of cAMP and PKA are modulated"}]}
{"smiles": "O=S(=O)(NCCNC/C=C/c1ccc(Br)cc1)c1cccc2cnccc12", "note": "[H-89]", "values": [{"measurement": "ATRA-dependent genes whose expression is super-induced by the PDE4 inhibitor", "setting": "[2]; added to PICLAMILAST and ATRA", "result": "does not have the same effect on all"}, {"measurement": "PICLAMILAST dependent enhancement of the ATRA-dependent induction of NBT-R", "setting": "[3]", "result": "suppressed"}]}
{"smiles": "COc1ccc(C(=O)Nc2c(Cl)cncc2Cl)cc1OC1CCCC1", "note": "[PICLAMILAST, N-(3,5-dichloropyrid-4-yl)-3-cyclopentyloxy-4-methoxybenzamide]", "values": [{"measurement": "growth inhibitory and cyto-differentiating activities of all trans retinoic acid (ATRA)", "setting": "[4]", "result": "potentiates"}, {"measurement": "amounts and activation state (tyrosine phosphorylation) of STAT1", "setting": "[5]", "result": "causes an increase"}, {"measurement": "expression of cAMP- and CREBP-dependent genes, such as vinculin", "setting": "[2]; NB4 cells", "result": "does not modulate"}, {"measurement": "expression of numerous ATRA-dependent genes, including cathepsin D and syaloadhesin", "setting": "[2]; with ATRA", "result": "enhancing action"}, {"measurement": "amounts of cEBPalpha", "setting": "[6]", "result": "causes an increase"}, {"measurement": "growth inhibitory and cyto-differentiating activities of all trans retinoic acid (ATRA)", "setting": "[7]", "result": "potentiates"}, {"measurement": "amounts of cAMP-dependent protein kinase (PKA)", "setting": "[1]", "result": "significant increase"}, {"measurement": "amounts of intracellular cAMP", "setting": "[1]", "result": "significant increase"}, {"measurement": "PKA-dependent phosphorylation of RARalpha", "setting": "[8]", "result": "activated"}, {"measurement": "ligand-dependent transcriptional activity of RARalpha", "setting": "[8]; in combination with the retinoid", "result": "enhances"}, {"measurement": "upregulation of cEBPepsilon", "setting": "[9]", "result": "no significant effect"}, {"measurement": "growth inhibitory and cyto-differentiating activities of all trans retinoic acid (ATRA)", "setting": "[3]; NB4 blasts, together with ATRA", "result": "potentiates"}, {"measurement": "process of morphological granulocytic maturation", "setting": "[3]; NB4 cells", "result": "accelerates"}, {"measurement": "ATRA-dependent induction of CD11b", "setting": "[3]; NB4 cells, with ATRA", "result": "enhances"}, {"measurement": "ATRA-dependent induction of NBT-reductase (NBTR)", "setting": "[3]; NB4 cells, with ATRA", "result": "enhances"}, {"measurement": "time necessary to expose cells to ATRA to obtain maximal differentiation", "setting": "[3]; acute myelogenous leukemia cells", "result": "reducing"}, {"measurement": "growth inhibitory effect of the retinoid", "setting": "[3]; acute myelogenous leukemia cells, with ATRA", "result": "increases the growth inhibitory effect of the retinoid in an additive fashion"}, {"measurement": "phosphorylation state of the cAMP dependent CREBP transcriptional factor", "setting": "[10]", "result": "down-regulatory action"}]}
{"smiles": "Nc1ncnc2c1nc(Br)n2C1OC2COP(O)(=S)OC2C1O", "note": "(stereo not drawn) [Rp-8Br-cAMP]", "values": [{"measurement": "PICLAMILAST dependent enhancement of the ATRA-dependent induction of NBT-R", "setting": "[3]", "result": "suppressed"}]}
{"smiles": "Cn1c(=O)c2[nH]cnc2n(C)c1=O", "note": "[Theophylline]", "values": [{"measurement": "apoptosis in CLL B-lymphocytes", "setting": "[11]", "result": "induce apoptosis"}]}
